Laboratory results: the NIST ThermoML archive (doi:10.1021/je300873x)
Numbers after ± are expanded uncertainties.

Experiment: mn = molality of the nth substance listed, in mol/kg
Details: for surface tension liquid-gas: Pendant drop shape; for electrical conductivity: Liquid, Digital conductivity meter

CCCCCCCCCCCCCC[N+](C)(CCO)CCO.[Br-] [N,N-bis(2-hydroxyethyl)-N-methyltetradecanaminium bromide] + O
surface tension liquid-gas (298.15 K, m1 = 0.0003): 64.43 ± 0.58 mN/m
surface tension liquid-gas (298.15 K, m1 = 0.00061): 59.09 ± 0.54 mN/m
surface tension liquid-gas (298.15 K, m1 = 0.00081): 56.14 ± 0.51 mN/m
surface tension liquid-gas (298.15 K, m1 = 0.00102): 54.31 ± 0.5 mN/m
surface tension liquid-gas (298.15 K, m1 = 0.00152): 48.51 ± 0.45 mN/m
surface tension liquid-gas (298.15 K, m1 = 0.00203): 44.69 ± 0.42 mN/m
surface tension liquid-gas (298.15 K, m1 = 0.00254): 40.4 ± 0.39 mN/m
surface tension liquid-gas (298.15 K, m1 = 0.00305): 38.3 ± 0.37 mN/m
surface tension liquid-gas (298.15 K, m1 = 0.00467): 38.31 ± 0.37 mN/m
surface tension liquid-gas (298.15 K, m1 = 0.00508): 38.46 ± 0.38 mN/m
surface tension liquid-gas (298.15 K, m1 = 0.00609): 38.23 ± 0.37 mN/m
surface tension liquid-gas (298.15 K, m1 = 0.00812): 38.23 ± 0.37 mN/m
electrical conductivity (298.15 K, m1 = 0.0026): 0.021 ± 0.0001 S/m
electrical conductivity (298.15 K, m1 = 0.0027): 0.0218 ± 0.0001 S/m
electrical conductivity (298.15 K, m1 = 0.0028): 0.0226 ± 0.0001 S/m
electrical conductivity (298.15 K, m1 = 0.00292): 0.0235 ± 0.0001 S/m
electrical conductivity (298.15 K, m1 = 0.00305): 0.0242 ± 0.0001 S/m
electrical conductivity (298.15 K, m1 = 0.00319): 0.025 ± 0.0001 S/m
electrical conductivity (298.15 K, m1 = 0.00334): 0.0255 ± 0.0001 S/m
electrical conductivity (298.15 K, m1 = 0.00351): 0.0259 ± 0.0001 S/m
electrical conductivity (298.15 K, m1 = 0.00369): 0.0262 ± 0.0001 S/m
electrical conductivity (298.15 K, m1 = 0.0039): 0.0267 ± 0.0001 S/m
electrical conductivity (298.15 K, m1 = 0.00412): 0.0272 ± 0.0001 S/m
electrical conductivity (298.15 K, m1 = 0.00438): 0.0277 ± 0.0001 S/m
electrical conductivity (298.15 K, m1 = 0.00467): 0.0283 ± 0.0001 S/m
electrical conductivity (298.15 K, m1 = 0.00501): 0.0289 ± 0.0001 S/m
electrical conductivity (298.15 K, m1 = 0.00539): 0.0298 ± 0.0001 S/m
electrical conductivity (298.15 K, m1 = 0.00584): 0.0306 ± 0.0001 S/m
electrical conductivity (298.15 K, m1 = 0.00637): 0.0317 ± 0.0001 S/m
electrical conductivity (303.15 K, m1 = 0.00259): 0.0232 ± 0.0001 S/m
electrical conductivity (303.15 K, m1 = 0.00269): 0.024 ± 0.0001 S/m
electrical conductivity (303.15 K, m1 = 0.0028): 0.025 ± 0.0001 S/m
electrical conductivity (303.15 K, m1 = 0.00292): 0.0257 ± 0.0001 S/m
electrical conductivity (303.15 K, m1 = 0.00304): 0.0268 ± 0.0001 S/m
electrical conductivity (303.15 K, m1 = 0.00318): 0.0278 ± 0.0001 S/m
electrical conductivity (303.15 K, m1 = 0.00333): 0.0282 ± 0.0001 S/m
electrical conductivity (303.15 K, m1 = 0.0035): 0.029 ± 0.0001 S/m
electrical conductivity (303.15 K, m1 = 0.00369): 0.0295 ± 0.0001 S/m
electrical conductivity (303.15 K, m1 = 0.00389): 0.03 ± 0.0001 S/m
electrical conductivity (303.15 K, m1 = 0.00412): 0.0305 ± 0.0001 S/m
electrical conductivity (303.15 K, m1 = 0.00438): 0.0311 ± 0.0001 S/m
electrical conductivity (303.15 K, m1 = 0.00467): 0.0318 ± 0.0001 S/m
electrical conductivity (303.15 K, m1 = 0.005): 0.0325 ± 0.0001 S/m
electrical conductivity (303.15 K, m1 = 0.00539): 0.0334 ± 0.0001 S/m
electrical conductivity (303.15 K, m1 = 0.00584): 0.0343 ± 0.0001 S/m
electrical conductivity (303.15 K, m1 = 0.00637): 0.0356 ± 0.0001 S/m
electrical conductivity (308.15 K, m1 = 0.00259): 0.0256 ± 0.0001 S/m
electrical conductivity (308.15 K, m1 = 0.00269): 0.0264 ± 0.0001 S/m
electrical conductivity (308.15 K, m1 = 0.0028): 0.0274 ± 0.0001 S/m
electrical conductivity (308.15 K, m1 = 0.00291): 0.0285 ± 0.0001 S/m
electrical conductivity (308.15 K, m1 = 0.00304): 0.0297 ± 0.0001 S/m
electrical conductivity (308.15 K, m1 = 0.00318): 0.0309 ± 0.0001 S/m
electrical conductivity (308.15 K, m1 = 0.00333): 0.0318 ± 0.0001 S/m
electrical conductivity (308.15 K, m1 = 0.0035): 0.0325 ± 0.0001 S/m
electrical conductivity (308.15 K, m1 = 0.00368): 0.0331 ± 0.0001 S/m
electrical conductivity (308.15 K, m1 = 0.00388): 0.0336 ± 0.0001 S/m
electrical conductivity (308.15 K, m1 = 0.00411): 0.0342 ± 0.0001 S/m
electrical conductivity (308.15 K, m1 = 0.00437): 0.0349 ± 0.0001 S/m
electrical conductivity (308.15 K, m1 = 0.00466): 0.0357 ± 0.0001 S/m
electrical conductivity (308.15 K, m1 = 0.00499): 0.0367 ± 0.0001 S/m
electrical conductivity (308.15 K, m1 = 0.00538): 0.0376 ± 0.0001 S/m
electrical conductivity (308.15 K, m1 = 0.00583): 0.0387 ± 0.0001 S/m
electrical conductivity (308.15 K, m1 = 0.00636): 0.0401 ± 0.0001 S/m
electrical conductivity (313.15 K, m1 = 0.00258): 0.028 ± 0.0001 S/m
electrical conductivity (313.15 K, m1 = 0.00268): 0.0291 ± 0.0001 S/m
electrical conductivity (313.15 K, m1 = 0.00279): 0.0303 ± 0.0001 S/m
electrical conductivity (313.15 K, m1 = 0.00291): 0.0314 ± 0.0001 S/m
electrical conductivity (313.15 K, m1 = 0.00303): 0.0327 ± 0.0001 S/m
electrical conductivity (313.15 K, m1 = 0.00317): 0.0341 ± 0.0001 S/m
electrical conductivity (313.15 K, m1 = 0.00332): 0.0353 ± 0.0001 S/m
electrical conductivity (313.15 K, m1 = 0.00349): 0.0364 ± 0.0001 S/m
electrical conductivity (313.15 K, m1 = 0.00367): 0.0373 ± 0.0001 S/m
electrical conductivity (313.15 K, m1 = 0.00388): 0.038 ± 0.0001 S/m
electrical conductivity (313.15 K, m1 = 0.0041): 0.0386 ± 0.0001 S/m
electrical conductivity (313.15 K, m1 = 0.00436): 0.0396 ± 0.0001 S/m
electrical conductivity (313.15 K, m1 = 0.00465): 0.0403 ± 0.0001 S/m
electrical conductivity (313.15 K, m1 = 0.00498): 0.0411 ± 0.0001 S/m
electrical conductivity (313.15 K, m1 = 0.00537): 0.0424 ± 0.0001 S/m
electrical conductivity (313.15 K, m1 = 0.00582): 0.0437 ± 0.0001 S/m
electrical conductivity (313.15 K, m1 = 0.00634): 0.0453 ± 0.0001 S/m
electrical conductivity (318.15 K, m1 = 0.00258): 0.0307 ± 0.0001 S/m
electrical conductivity (318.15 K, m1 = 0.00268): 0.0318 ± 0.0001 S/m
electrical conductivity (318.15 K, m1 = 0.00279): 0.033 ± 0.0001 S/m
electrical conductivity (318.15 K, m1 = 0.0029): 0.0344 ± 0.0001 S/m
electrical conductivity (318.15 K, m1 = 0.00303): 0.0355 ± 0.0001 S/m
electrical conductivity (318.15 K, m1 = 0.00317): 0.0372 ± 0.0001 S/m
electrical conductivity (318.15 K, m1 = 0.00332): 0.0389 ± 0.0001 S/m
electrical conductivity (318.15 K, m1 = 0.00348): 0.0407 ± 0.0001 S/m
electrical conductivity (318.15 K, m1 = 0.00367): 0.0413 ± 0.0001 S/m
electrical conductivity (318.15 K, m1 = 0.00387): 0.0425 ± 0.0001 S/m
electrical conductivity (318.15 K, m1 = 0.0041): 0.0436 ± 0.0001 S/m
electrical conductivity (318.15 K, m1 = 0.00435): 0.0446 ± 0.0001 S/m
electrical conductivity (318.15 K, m1 = 0.00464): 0.0455 ± 0.0001 S/m
electrical conductivity (318.15 K, m1 = 0.00497): 0.0467 ± 0.0001 S/m
electrical conductivity (318.15 K, m1 = 0.00536): 0.0478 ± 0.0001 S/m
electrical conductivity (318.15 K, m1 = 0.0058): 0.0494 ± 0.0001 S/m
electrical conductivity (318.15 K, m1 = 0.00633): 0.0511 ± 0.0001 S/m
electrical conductivity (323.15 K, m1 = 0.00257): 0.0334 ± 0.0001 S/m
electrical conductivity (323.15 K, m1 = 0.00267): 0.0347 ± 0.0001 S/m
electrical conductivity (323.15 K, m1 = 0.00278): 0.0359 ± 0.0001 S/m
electrical conductivity (323.15 K, m1 = 0.0029): 0.0374 ± 0.0001 S/m
electrical conductivity (323.15 K, m1 = 0.00302): 0.0388 ± 0.0001 S/m
electrical conductivity (323.15 K, m1 = 0.00316): 0.0406 ± 0.0001 S/m
electrical conductivity (323.15 K, m1 = 0.00331): 0.0424 ± 0.0001 S/m
electrical conductivity (323.15 K, m1 = 0.00347): 0.0444 ± 0.0001 S/m
electrical conductivity (323.15 K, m1 = 0.00366): 0.0464 ± 0.0001 S/m
electrical conductivity (323.15 K, m1 = 0.00386): 0.0477 ± 0.0001 S/m
electrical conductivity (323.15 K, m1 = 0.00409): 0.049 ± 0.0001 S/m
electrical conductivity (323.15 K, m1 = 0.00434): 0.0502 ± 0.0001 S/m
electrical conductivity (323.15 K, m1 = 0.00463): 0.0514 ± 0.0001 S/m
electrical conductivity (323.15 K, m1 = 0.00496): 0.0526 ± 0.0001 S/m
electrical conductivity (323.15 K, m1 = 0.00535): 0.054 ± 0.0001 S/m
electrical conductivity (323.15 K, m1 = 0.00579): 0.0559 ± 0.0001 S/m
electrical conductivity (323.15 K, m1 = 0.00632): 0.0577 ± 0.0001 S/m

O [water] + CCCCCCCCCCCCCCCC[N+](C)(CCO)CCO.[Br-]
surface tension liquid-gas (298.15 K, m2 = 0): 72.17 ± 0.64 mN/m

O [water] + CCCCCCCCCCCCCC[N+](C)(C)CCO.[Br-]
surface tension liquid-gas (298.15 K, m2 = 0): 72.17 ± 0.64 mN/m

O [water] + CCCCCCCCCCCCCCCC[N+](C)(C)CCO.[Br-]
surface tension liquid-gas (298.15 K, m2 = 0): 72.17 ± 0.64 mN/m
